Test results from PubChem BioAssay (NCI).
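Assay format: 96-well plates, 48-hour exposure. GI50 = concentration required for 50% inhibition of growth. TGI: concentration producing complete growth inhibition.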

Legend:
Experiment in all cases: inhibition of tumour cell growth, NCI panel, 48 h
786-0 renal = tested on: 786-0 renal
A498 renal = tested on: A498 renal
A549 NSCLC = tested on: A549 NSCLC
ACHN renal = tested on: ACHN renal
BT-549 breast = tested on: BT-549 breast
CAKI-1 renal = tested on: CAKI-1 renal
COLO 205 colon = tested on: COLO 205 colon
DU-145 prostate = tested on: DU-145 prostate
EKVX NSCLC = tested on: EKVX NSCLC
HCC-2998 colon = tested on: HCC-2998 colon
HCT-116 colon = tested on: HCT-116 colon
HCT-15 colon = tested on: HCT-15 colon
HL-60(TB) leukemia = tested on: HL-60(TB) leukemia
HOP-62 NSCLC = tested on: HOP-62 NSCLC
HOP-92 NSCLC = tested on: HOP-92 NSCLC
HS 578T breast = tested on: HS 578T breast
HT29 colon = tested on: HT29 colon
IGROV1 ovarian = tested on: IGROV1 ovarian
K-562 leukemia = tested on: K-562 leukemia
KM12 colon = tested on: KM12 colon
LOX IMVI melanoma = tested on: LOX IMVI melanoma
M14 melanoma = tested on: M14 melanoma
MCF7 breast = tested on: MCF7 breast
MDA-MB-435 = tested on: MDA-MB-435
MOLT-4 leukemia = tested on: MOLT-4 leukemia
NCI-H226 lung = tested on: NCI-H226 lung
NCI-H23 lung = tested on: NCI-H23 lung
NCI-H460 lung = tested on: NCI-H460 lung
NCI-H522 lung = tested on: NCI-H522 lung
NCI/ADR-RES ovarian = tested on: NCI/ADR-RES ovarian
OVCAR-3 ovarian = tested on: OVCAR-3 ovarian
OVCAR-4 ovarian = tested on: OVCAR-4 ovarian
OVCAR-5 ovarian = tested on: OVCAR-5 ovarian
OVCAR-8 ovarian = tested on: OVCAR-8 ovarian
PC-3 prostate = tested on: PC-3 prostate
RPMI-8226 leukemia = tested on: RPMI-8226 leukemia
RXF 393 renal = tested on: RXF 393 renal
SF-268 CNS = tested on: SF-268 CNS
SF-295 CNS = tested on: SF-295 CNS
SF-539 CNS = tested on: SF-539 CNS
SK-MEL-2 melanoma = tested on: SK-MEL-2 melanoma
SK-MEL-28 melanoma = tested on: SK-MEL-28 melanoma
SK-MEL-5 melanoma = tested on: SK-MEL-5 melanoma
SK-OV-3 ovarian = tested on: SK-OV-3 ovarian
SN12C renal = tested on: SN12C renal
SNB-19 CNS = tested on: SNB-19 CNS
SNB-75 CNS = tested on: SNB-75 CNS
SR leukemia = tested on: SR leukemia
SW-620 colon = tested on: SW-620 colon
T-47D breast = tested on: T-47D breast
TK-10 renal = tested on: TK-10 renal
U251 CNS = tested on: U251 CNS
UACC-62 melanoma = tested on: UACC-62 melanoma
UO-31 renal = tested on: UO-31 renal

With `O=S(=O)(NCCCNc1cc(-c2cn(-c3ccccc3)nc2-c2cccc(O)c2)ccn1)c1ccc(C(F)(F)F)cc1` the GI50 (786-0 renal) was 1570 nM, the TGI (786-0 renal) was 3700 nM and the GI50 (A498 renal) was 1100 nM. The TGI (A498 renal) was 2640 nM, the GI50 (A549 NSCLC) was 2140 nM and the TGI (A549 NSCLC) was 7450 nM. It also gave a GI50 (ACHN renal) of 3080 nM, a TGI (ACHN renal) of 10700 nM and a GI50 (BT-549 breast) of 1390 nM. The TGI (BT-549 breast) was 2800 nM, the GI50 (CAKI-1 renal) was 2080 nM and the TGI (CAKI-1 renal) was 7810 nM. The GI50 (COLO 205 colon) was 1780 nM, the TGI (COLO 205 colon) was 3540 nM and the GI50 (DU-145 prostate) was 2650 nM. It also gave a TGI (DU-145 prostate) of 8110 nM, a GI50 (EKVX NSCLC) of 2450 nM and a TGI (EKVX NSCLC) of 10700 nM. It also gave a GI50 (HCC-2998 colon) of 1920 nM, a TGI (HCC-2998 colon) of 3530 nM and a GI50 (HCT-116 colon) of 1440 nM. For the same compound, the TGI (HCT-116 colon) was 2950 nM, the GI50 (HCT-15 colon) was 1470 nM and the TGI (HCT-15 colon) was 3360 nM. The GI50 (HL-60(TB) leukemia) was 2520 nM, the TGI (HL-60(TB) leukemia) was 6200 nM and the GI50 (HOP-62 NSCLC) was 1950 nM. For the same compound, the TGI (HOP-62 NSCLC) was 3780 nM, the GI50 (HOP-92 NSCLC) was 1560 nM and the TGI (HOP-92 NSCLC) was 3900 nM. The GI50 (HS 578T breast) was 1460 nM, the TGI (HS 578T breast) was 5770 nM and the GI50 (HT29 colon) was 1230 nM. It also gave a TGI (HT29 colon) of 3180 nM, a GI50 (IGROV1 ovarian) of 3240 nM and a TGI (IGROV1 ovarian) of 9550 nM. The GI50 (K-562 leukemia) was 924 nM, the TGI (K-562 leukemia) was 4590 nM and the GI50 (KM12 colon) was 1890 nM. It also gave a TGI (KM12 colon) of 4490 nM, a GI50 (LOX IMVI melanoma) of 1670 nM and a TGI (LOX IMVI melanoma) of 3120 nM. For the same compound, the GI50 (M14 melanoma) was 1660 nM, the TGI (M14 melanoma) was 3240 nM and the GI50 (MCF7 breast) was 2110 nM. The TGI (MCF7 breast) was 6580 nM, the GI50 (MDA-MB-435) was 1740 nM and the TGI (MDA-MB-435) was 3460 nM. For the same compound, the GI50 (MOLT-4 leukemia) was 1830 nM, the TGI (MOLT-4 leukemia) was 5360 nM and the GI50 (NCI-H226 lung) was 2310 nM. For the same compound, the TGI (NCI-H226 lung) was 6250 nM, the GI50 (NCI-H23 lung) was 1650 nM and the TGI (NCI-H23 lung) was 3940 nM. The GI50 (NCI-H460 lung) was 1860 nM, the TGI (NCI-H460 lung) was 3860 nM and the GI50 (NCI-H522 lung) was 2280 nM. It also gave a TGI (NCI-H522 lung) of 4830 nM, a GI50 (NCI/ADR-RES ovarian) of 2450 nM and a TGI (NCI/ADR-RES ovarian) of 7130 nM. For the same compound, the GI50 (OVCAR-3 ovarian) was 1920 nM, the TGI (OVCAR-3 ovarian) was 4030 nM and the GI50 (OVCAR-4 ovarian) was 1870 nM. The TGI (OVCAR-4 ovarian) was 5780 nM, the GI50 (OVCAR-5 ovarian) was 1920 nM and the TGI (OVCAR-5 ovarian) was 5160 nM. It also gave a GI50 (OVCAR-8 ovarian) of 2470 nM, a TGI (OVCAR-8 ovarian) of 7660 nM and a GI50 (PC-3 prostate) of 1930 nM. The TGI (PC-3 prostate) was 4570 nM, the GI50 (RPMI-8226 leukemia) was 1660 nM and the TGI (RPMI-8226 leukemia) was 4820 nM. It also gave a GI50 (RXF 393 renal) of 1240 nM, a TGI (RXF 393 renal) of 2840 nM and a GI50 (SF-268 CNS) of 1850 nM. The TGI (SF-268 CNS) was 4950 nM, the GI50 (SF-295 CNS) was 1790 nM and the TGI (SF-295 CNS) was 3640 nM. It also gave a GI50 (SF-539 CNS) of 1830 nM, a TGI (SF-539 CNS) of 3770 nM and a GI50 (SK-MEL-2 melanoma) of 1880 nM. The TGI (SK-MEL-2 melanoma) was 3630 nM, the GI50 (SK-MEL-28 melanoma) was 1990 nM and the TGI (SK-MEL-28 melanoma) was 4290 nM. The GI50 (SK-MEL-5 melanoma) was 1560 nM, the TGI (SK-MEL-5 melanoma) was 2970 nM and the GI50 (SK-OV-3 ovarian) was 2390 nM. The TGI (SK-OV-3 ovarian) was 5950 nM, the GI50 (SN12C renal) was 1810 nM and the TGI (SN12C renal) was 3670 nM. For the same compound, the GI50 (SNB-19 CNS) was 2040 nM, the TGI (SNB-19 CNS) was 5550 nM and the GI50 (SNB-75 CNS) was 1450 nM. For the same compound, the TGI (SNB-75 CNS) was 5060 nM, the GI50 (SR leukemia) was 1780 nM and the TGI (SR leukemia) was 5830 nM. It also gave a GI50 (SW-620 colon) of 1780 nM, a TGI (SW-620 colon) of 3930 nM and a GI50 (T-47D breast) of 2490 nM. For the same compound, the TGI (T-47D breast) was 7080 nM, the GI50 (TK-10 renal) was 3320 nM and the TGI (TK-10 renal) was 9840 nM. For the same compound, the GI50 (U251 CNS) was 1280 nM, the TGI (U251 CNS) was 3260 nM and the GI50 (UACC-62 melanoma) was 1530 nM. For the same compound, the TGI (UACC-62 melanoma) was 3170 nM, the GI50 (UO-31 renal) was 2040 nM and the TGI (UO-31 renal) was 5740 nM.
